Structures can show the parent of a compound that is named as a salt.
Structure (SMILES)	melting point [°C]
Cc1cccnc1-n1nc(C)c2c(N)c3cccc(C)c3nc21 [Example 2-134, 3,8-Dimethyl-1-(3-methyl-2-pyridinyl)-1H-pyrazolo[3,4-b]quinolin-4-ylamine]	199 to 202
Cc1nn(-c2cccnc2)c2nc3cc(F)c(F)cc3c(Cl)c12 [Example 2-202, 4-Chloro-6,7-difluoro-3-methyl-1-(3-pyridinyl)-1H-pyrazolo[3,4-b]quinoline]	192 to 194
Fc1cc2nc3c(cnn3-c3ccccn3)c(Cl)c2cc1F [Example 2-198, 4-Chloro-6,7-difluoro-1-(2-pyridinyl)-1H-pyrazolo[3,4-b]quinoline]	167 to 168
Cc1nn(-c2ccccn2)c2[nH]c3cc([N+](=O)[O-])ccc3c(=O)c12 [Example 2-58, 3-Methyl-7-nitro-1-(2-pyridinyl)-1,9-dihydro-4H-pyrazolo[3,4-b]quinolin-4-one]	> 300
Cc1nn(-c2ccccn2)c2[nH]c3cc(Cl)c(F)cc3c(=O)c12 [Example 2-97, 7-Chloro-6-fluoro-3-methyl-1-(2-pyridinyl)-1,9-dihydro-4H-pyrazolo[3,4-b]quinolin-4-one]	264 to 265
CCc1nn(-c2ccccn2)c2nc3ccccc3c(N)c12.Cl	249 to 252
Cc1nn(-c2ccccn2)c2[nH]c3cc(N)ccc3c(=O)c12 [Example 2-59, 7-Amino-3-methyl-1-(2-pyridinyl)-1,9-dihydro-4H-pyrazolo[3,4-b]quinolin-4-one]	284 to 286
Clc1c2ccccc2nc2c1cnn2-c1ccccn1 [Example 2-157, 4-Chloro-1-(2-pyridinyl)-1H-pyrazolo[3,4-b]quinoline]	153 to 156
Cc1c(O)nc2c(c(C)nn2-c2ccccn2)c1C [Example 1-24, 3,4,5-Trimethyl-1-(2-pyridinyl)-1H-pyrazolo[3,4-b]pyridin-6-ol]	226 to 228
Cc1nn(-c2cccc(Cl)n2)c2[nH]c3ccccc3c(=O)c12 [Example 2-110, 1-(6-Chloro-2-pyridinyl)-3-methyl-1,9-dihydro-4H-pyrazolo[3,4-b]quinolin-4-one]	251 to 253
Cc1nn(-c2ccccn2)c2nc3cc(F)c(F)cc3c(OC(C)C)c12 [Example 2-95, 6,7-Difluoro-4-isopropoxy-3-methyl-1-(2-pyridinyl)-1H-pyrazolo[3,4-b]quinoline]	159 to 160
Cc1nn(-c2ccncc2)c2nc3ccccc3c(Cl)c12 [Example 2-140, 4-Chloro-3-methyl-1-(4-pyridinyl)-1H-pyrazolo[3,4-b]quinoline]	165 to 168
Cc1nn(-c2ccccn2)c2nc3ccc(C(F)(F)F)cc3c(Cl)c12 [Example 2-39, 4-Chloro-3-methyl-1-(2-pyridinyl)-6-(trifluoromethyl)-1H-pyrazolo[3,4-b]quinoline]	206
Cc1ccc(-n2nc(C)c3c(N)c4ccccc4nc32)nc1 [Example 2-116, 3-Methyl-1-(5-methyl-2-pyridinyl)-1H-pyrazolo[3,4-b]quinolin-4-ylamine]	229 to 232
Cc1nn(-c2ccccn2)c2[nH]c3c(c(=O)c12)CCCCC3 [Example 2-195, 3-Methyl-1-(2-pyridinyl)-5,6,7,8,9,10-hexahydrocyclohepta[b]pyrazolo[4,3-e]pyridin-4(1H)-one]	184 to 185
Cc1nn(-c2ccccn2)c2[nH]c3ccc(N(C)C)cc3c(=O)c12 [Example 2-56, 6-Dimethylamino-3-methyl-1-(2-pyridinyl)-1,9-dihydro-4H-pyrazolo[3,4-b]quinolin-4-one]	171 to 173
Clc1c2ccccc2nc2c1c(CBr)nn2-c1ccccn1 [Example 2-168, 3-Bromomethyl-4-chloro-1-(2-pyridinyl)-1H-pyrazolo[3,4-b]quinoline]	203 to 205
Cc1nn(-c2ccncc2)c2nc3ccccc3c(N(C)C)c12 [Example 2-142, N,N-Dimethyl-N-[3-methyl-1-(4-pyridinyl)-1H-pyrazolo[3,4-b]quinolin-4-yl]amine]	155 to 156
Cc1cccc2c(=O)c3c(C)nn(-c4ccccn4)c3[nH]c12 [Example 2-38, 3,8-Dimethyl-1-(2-pyridinyl)-1,9-dihydro-4H-pyrazolo[3,4-b]quinolin-4-one]	241 to 243
Cc1nn(Cc2ccccn2)c2nc3ccccc3c(N(C)C)c12 [Example 2-188, N,N-Dimethyl-N-[3-methyl-1-(2-pyridinylmethyl)-1H-pyrazolo[3,4-b]quinolin-4-yl]amine]	166 to 168
Cc1nn(Cc2ccccn2)c2nc3ccccc3c(N)c12 (as salt: salt) [Example 2-187, 3-Methyl-1-(2-pyridinylmethyl)-1H-pyrazolo[3,4-b]quinolin-4-ylamine]	262 to 265
CCOc1cccc(-n2nc(C)c3c(Cl)c4c(C)cccc4nc32)n1 [Example 2-121, 4-Chloro-3,5-dimethyl-1-(6-ethoxy-2-pyridinyl)-1H-pyrazolo[3,4-b]quinoline]	146 to 148

Now from value to compound:

melting point [°C]	Structure (SMILES)
> 300	Cc1nn(-c2ccccn2)c2ncc(C(=O)Nc3ccc(F)c(F)c3)c(O)c12 [Example 1-15, N-(3,4-Difluorophenyl)-4-hydroxy-3-methyl-1-(2-pyridinyl)-1H-pyrazolo[3,4-b]pyridine-5-carboxamide]
300 to 303	Cc1nn(-c2ccccn2)c2[nH]c3ccc(F)c(F)c3c(=O)c12 [Example 2-89, 5,6-Difluoro-3-methyl-1-(2-pyridinyl)-1,9-dihydro-4H-pyrazolo[3,4-b]quinolin-4-one]
306 to 309	O=C(O)c1nn(-c2ccccn2)c2[nH]c3ccccc3c(=O)c12 [Example 2-181, 4-Oxo-1-(2-pyridinyl)-4,9-dihydro-1H-pyrazolo[3,4-b]quinoline-3-carboxylic acid]
167 to 169	CC(C)Cc1nn(-c2ccccn2)c2[nH]c3ccccc3c(=O)c12 [Example 2-174, 3-Isobutyl-1-(2-pyridinyl)-1,9-dihydro-4H-pyrazolo[3,4-b]quinolin-4-one]
195 to 197	Cc1cccnc1-n1nc(C)c2c(=O)c3c(C)cccc3[nH]c21 [Example 2-125, 3,5-Dimethyl-1-(3-methyl-2-pyridinyl)-1,9-dihydro-4H-pyrazolo[3,4-b]quinolin-4-one]
184 to 187	CCOc1cccc(-n2nc(C)c3c(N)c4cccc(C)c4nc32)n1 [Example 2-129, 3,8-Dimethyl-1-(6-ethoxy-2-pyridinyl)-1H-pyrazolo[3,4-b]quinolin-4-ylamine]
193 to 195	Cc1cccnc1-n1nc(C)c2c(=O)c3cccc(C)c3[nH]c21 (as salt: salt) [Example 2-135, 3,8-Dimethyl-1-(3-methyl-2-pyridinyl)-1,9-dihydro-4H-pyrazolo[3,4-b]quinolin-4-one]
211	Cc1nn(-c2ccccn2)c2nc3cc(F)c(Cl)cc3c(Cl)c12 [Example 2-98, 4,6-Dichloro-7-fluoro-3-methyl-1-(2-pyridinyl)-1H-pyrazolo[3,4-b]quinoline]
151 to 153	CCOc1cccc(-n2nc(C)c3c(Cl)c4cccc(C)c4nc32)n1 [Example 2-128, 4-Chloro-3,8-dimethyl-1-(6-ethoxy-2-pyridinyl)-1H-pyrazolo[3,4-b]quinoline]
182	CSc1ccc2nc3c(c(C)nn3-c3ccccn3)c(Cl)c2c1 [Example 2-49, 4-Chloro-3-methyl-6-(methylsulfanyl)-1-(2-pyridinyl)-1H-pyrazolo[3,4-b]quinoline]
> 300	Cc1nn(-c2ccccn2)c2[nH]c3ccc(C(=O)O)cc3c(=O)c12 [Example 2-65, 3-Methyl-4-oxo-1-(2-pyridinyl)-4,9-dihydro-1H-pyrazolo[3,4-b]quinoline-6-carboxylic acid]
204 to 205	Cc1nn(-c2ccccn2)c2nc3ncccc3c(Cl)c12 [Example 2-196, 4-Chloro-3-methyl-1-(2-pyridinyl)-1H-pyrazolo[3,4-b][1, 8]naphthyridine]
241	Cc1nn(-c2ccccn2)c2[nH]c3c(F)cccc3c(=O)c12 [Example 2-85, 8-Fluoro-3-methyl-1-(2-pyridinyl)-1,9-dihydro-4H-pyrazolo[3,4-b]quinolin-4-one]
261 to 263	Cc1nn(-c2nccs2)c2nc3ccccc3c(N)c12 [Example 2-150, 3-Methyl-1-(1,3-thiazol-2-yl)-1H-pyrazolo[3,4-b]quinolin-4-ylamine]
191 to 193	Cc1nn(-c2cccc(Cl)n2)c2nc3ccccc3c(Cl)c12 [Example 2-109, 4-Chloro-1-(6-chloro-2-pyridinyl)-3-methyl-1H-pyrazolo[3,4-b]quinoline]
> 300	Cc1nn(-c2ccccn2)c2ncc(C(=O)NCc3ccccc3)c(O)c12 [Example 1-9, N-Benzyl-4-hydroxy-3-methyl-1-(2-pyridinyl)-1H-pyrazolo[3,4-b]pyridine-5-carboxamide]
259 to 266	Cc1nn(-c2ccncc2)c2nc3ccccc3c(N)c12.Cl.Cl
183 to 186	CCOC(=O)c1nn(-c2ccccn2)c2[nH]c3ccccc3c(=O)c12 [Example 2-180, Ethyl 4-oxo-1-(2-pyridinyl)-4,9-dihydro-1H-pyrazolo[3,4-b]quinoline-3-carboxylate]
160 to 161	Cc1nn(-c2ccccn2)c2nc3cccc(F)c3c(Cl)c12 [Example 2-78, 4-Chloro-5-fluoro-3-methyl-1-(2-pyridinyl)-1H-pyrazolo[3,4-b]quinoline]
97 to 99	CCCCNc1c2ccccc2nc2c1c(C)nn2-c1ccccn1 [Example 2-7, N-Butyl-N-[3-methyl-1-(2-pyridinyl)-1H-pyrazolo[3,4-b]quinolin-4-yl]amine]
168 to 169	Cc1nn(-c2ccccn2)c2nc(Cc3ccccc3)cc(O)c12 [Example 1-21, 6-Benzyl-3-methyl-1-(2-pyridinyl)-1H-pyrazolo[3,4-b]pyridin-4-ol]
271 to 274	Cc1cccnc1-n1nc(C)c2c(N)c3c(C)cccc3nc21 [Example 2-124, 3,5-Dimethyl-1-(3-methyl-2-pyridinyl)-1H-pyrazolo[3,4-b]quinolin-4-ylamine]

Reference: patent publication US6949648B2, “Condensed pyrazole derivatives, process for producing the same and use thereof” (Takeda Pharmaceutical Company Limited, priority 2000, dated 2005)
